Test results published in US9751896B1, “Asymmetric 7-N isatin dimer Schiff base compounds with antitumor activities and a method of preparing the same” (SHAANXI UNIVERSITY OF SCIENCE AND TECHNOLOGY, priority 2016, dated 2017).

Assays:
[1] = test system: human hepatoma cells (HepG2); test: Tumor cell proliferation inhibition test (MTT), HepG2; assay type: cell-based; conditions: 48 hours treatment, read-out: Half Inhibitory Concentration IC50 HepG2
Method: (§1) The compounds of the present invention were subjected to tumor cell proliferation inhibition test, and conventional MTT method was used.
(§2) Cell lines: human hepatoma cells (HepG2), human lung cancer cells (A-549), human gastric cancer cells (SGC-7901). The culture medium was DMEM+15% NBS+double antibody.
(§3) Sample solution preparation: after dissolving with DMSO (Merck), PBS (−) was added to obtain 100 μmol/L solution or homogeneous suspension. The solution was diluted with PBS (−) in DMSO to a final concentration of 0.1, 1, 10, 20, 40, 60, 80, 100 μmol/L.
(§4) Antitumor drug cytarabine (Ara-C) was used as control solution, prepared under the same condition.
(§5) Cell culture: adherent growth Tumor cells were cultured in 1640 medium containing 10% inactivated neonatal bovine serum and penicillin, streptomycin (1 million U/L), placed in carbon dioxide incubator at 37° C., 5% CO2, and saturated humidity. Cells were treated serially passaged 2-3 times. The first culture was washed with PBS 2 times, and digested with trypsin. Fresh culture medium was added evenly, cells were adjusted to a appropriate concentration and transferred into a new culture flask. Cell in an exponential phase were chosen for the tests.
(§6) MTT Assay for Cell Viability and IC50 Determination:
(§7) Experimental Principle: Living cells mitochondria in the dehydrogenase can reduce yellow MTT to water-insoluble blue-violet product MT (MTT formazan), deposited in the cells. The amount of production is proportional to the number of living cells. […] DMSO can dissolve blue violet crystals, and the color depth is proportional to the amount contained, so the absorbance measured by the microplate reader can reflect the cell viability.
(§8) Methods: The exponential phase cells were digested and counted and seeded in 96-well plates at a density of 2×10^4/mL at 100 μl per well. After 24 hours of incubation, the cells to be tested were treated with 0.1, 1, 10, 20, 40, 60, 80, 100 μmol/L of the compounds. Each experimental group had 5 wells in each concentration, and the culture medium containing 0.4% DMSO was used as control. After 48 hours, the supernatant was discarded, and 100 μl of MTT ((2-(4,5-dimethyl-2-thiazolyl)-3,5-diphenyl-2H-[…]) (1 mg/mL) was added to each well. After another 4 hours, the supernatant was discarded, and 100 μl of DMSO was added to each well. After mixing, the absorbance was measured at 570 nm using a microplate reader. An IC50 calculation software was used to determine the half inhibitory concentration (IC50).

[2] = test system: human lung cancer cells (A-549); test: Tumor cell proliferation inhibition test (MTT), A-549; assay type: cell-based; conditions: A549 cells, 48 hours treatment, read-out: Half Inhibitory Concentration IC50 A549
Method: as §1, §2, §3, §4, §5, §6, §7, §8

[3] = test system: human gastric cancer cells (SGC-7901); test: Tumor cell proliferation inhibition test (MTT), SGC-7901; assay type: cell-based; conditions: SGC-7901 cells, 48 hours treatment, read-out: Half Inhibitory Concentration IC50 SGC-7901
Method: as §1, §2, §3, §4, §5, §6, §7, §8

Compound	IC50 [1] [µM]	IC50 [2] [µM]	IC50 [3] [µM]	melting point [°C]
Nc1ccn([C@@H]2O[C@H](CO)[C@@H](O)[C@@H]2O)c(=O)n1 [Ara-C, cytarabine, reference compound]	18.3 ± 0.28	14.9 ± 0.64	18.2 ± 0.39	
Cc1cnc2c(c1)/C(=N/N=C1\C(=O)Nc3ncc(Cl)cc31)C(=O)N2 [Compound 1]	> 100	55.8 ± 2.67	42.3 ± 1.89	174.5
CN1C(=O)/C(=N\N=C2/C(=O)N(Cc3ccccc3)c3ncccc32)c2cccnc21 [Compound 4]	> 100	85.8 ± 2.96	> 100	214.3
CCN1C(=O)/C(=N\N=C2/C(=O)N(C)c3ncccc32)c2cccnc21 [Compound 5]	28.7 ± 0.4		46.9 ± 0.85	195.6
CCN1C(=O)/C(=N\N=C2/C(=O)N(C(C)C)c3ncccc32)c2cccnc21 [Compound 6]	> 100	> 100	> 100	191.9
CC(C)N1C(=O)/C(=N\N=C2/C(=O)N(C)c3ncccc32)c2cccnc21 [Compound 7]	98.6 ± 3.23	> 100	> 100	182.5
